Converted amounts (≈) assume the structure as drawn.
Key:
[1] = test system: Mycobacterium bovis BCG str. ATCC 35743; assay: Antitubercular activity against dormant Mycobacterium bovis BCG ATCC 35743 assessed as growth inhibition at 3 ug/mL by NR assay; type: functional
[2] = test system: Mycobacterium bovis BCG str. ATCC 35743; assay: Antitubercular activity against dormant Mycobacterium bovis BCG ATCC 35743 assessed as growth inhibition at 10 ug/mL by NR assay; type: functional
[3] = test system: Mycobacterium tuberculosis; assay: Antitubercular activity against dormant Mycobacterium tuberculosis H37Ra assessed as growth inhibition at 30 ug/mL by XTT reduction menadione assay; type: functional; settings: read-out: GI
[4] = test system: Mycobacterium tuberculosis; assay: Antitubercular activity against dormant Mycobacterium tuberculosis H37Ra assessed as growth inhibition at 10 ug/mL by XTT reduction menadione assay; type: functional; settings: read-out: GI
[5] = test system: Mycobacterium tuberculosis; assay: Antitubercular activity against dormant Mycobacterium tuberculosis H37Ra assessed as growth inhibition at 3 ug/mL by XTT reduction menadione assay; type: functional; settings: read-out: GI
[6] = test system: Mycobacterium bovis BCG str. ATCC 35743; assay: Antitubercular activity against dormant Mycobacterium bovis BCG ATCC 35743 assessed as growth inhibition at 30 ug/mL by NR assay; type: functional
[7] = (§1) Antitubercular activity against dormant Mycobacterium bovis BCG ATCC 35743 by NR assay; type: functional, Mycobacterium bovis BCG str. ATCC 35743
[8] = test system: Mycobacterium bovis BCG str. ATCC 35743; assay: as §1; type: functional
[9] = test system: Mycobacterium tuberculosis; assay: Antitubercular activity against dormant Mycobacterium tuberculosis H37Ra by XTT reduction menadione assay; type: functional, organism-based
[10] = Cytotoxicity against human MCF7 cells at 30 ug/mL by MTT assay; type: cell-based; settings: read-out: INH
[11] = Cytotoxicity against human MCF7 cells at 10 ug/mL by MTT assay; type: cell-based; settings: read-out: INH
[12] = Cytotoxicity against human MCF7 cells at 3 ug/mL by MTT assay; type: cell-based; settings: read-out: INH
[13] = Cytotoxicity against human A549 cells at 30 ug/mL by MTT assay; type: cell-based; settings: read-out: INH
[14] = Cytotoxicity against human A549 cells at 10 ug/mL by MTT assay; type: cell-based; settings: read-out: INH
[15] = Cytotoxicity against human A549 cells at 3 ug/mL by MTT assay; type: cell-based; settings: read-out: INH
[16] = Cytotoxicity against human HCT116 cells at 30 ug/mL by MTT assay; type: cell-based, HCT-116; settings: read-out: INH
[17] = Cytotoxicity against human HCT116 cells at 10 ug/mL by MTT assay; type: cell-based, HCT-116; settings: read-out: INH
[18] = Cytotoxicity against human HCT116 cells at 3 ug/mL by MTT assay; type: cell-based, HCT-116; settings: read-out: INH
[19] = Cytotoxicity against human HCT116 cells after 48 and 72 hrs by MTT assay; type: cell-based, HCT-116; settings: for GI50 at 72 h: HCT116 cells; for GI90: hct-116, 72 h
[20] = (§2) Cytotoxicity against human A549 cells after 48 and 72 hrs by MTT assay; type: cell-based; settings: A549 cells
A549 = assay: as §2; type: cell-based; settings: a549, 72 h
[21] = (§3) Cytotoxicity against human MCF7 cells after 48 and 72 hrs by MTT assay; type: cell-based; settings: MCF7 cells
MCF7 = assay: as §3; type: cell-based; settings: mcf7, 72 h
Escherichia coli = assay: Antibacterial activity against Escherichia coli after 18 hrs by broth dilution method; type: functional, organism-based
Pseudomonas = assay: Antibacterial activity against Pseudomonas after 18 hrs by broth dilution method; type: functional, organism-based
Staphylococcus aureus = assay: Antibacterial activity against Staphylococcus aureus after 18 hrs by broth dilution method; type: functional, organism-based
Bacillus subtilis = assay: Antibacterial activity against Bacillus subtilis after 18 hrs by broth dilution method; type: functional, organism-based

Row | Structure (SMILES) | growth inhibition (GI) [1] [%] | growth inhibition (GI) [2] [%] | inhibition of growth at 30 µg/mL [3] [%] | inhibition of growth at 10 µg/mL [4] [%] | inhibition of growth at 3 µg/mL [5] [%] | growth inhibition (GI) [6] [%] | IC50 [7] [µg/mL] | IC90 [8] [µg/mL] | IC50 [9] [µg/mL] | IC90 [9] [µg/mL] | cytotoxicity at 30 ug/mL [10] [%] | cytotoxicity at 10 ug/mL [11] [%] | cytotoxicity at 3 ug/mL [12] [%] | cytotoxicity at 30 ug/mL [13] [%] | cytotoxicity at 10 ug/mL [14] [%] | cytotoxicity at 3 ug/mL [15] [%] | cytotoxicity at 30 ug/mL [16] [%] | cytotoxicity at 10 ug/mL [17] [%] | cytotoxicity at 3 ug/mL [18] [%] | GI50 at 72 h [19] [µg/mL] | further results
1 | COc1ccc(C2SCC(=O)N2c2ccccc2)cc1 (configuration not stated) | 23.2 | 56.1 | 83.3 | 74.1 | 45.1 | 85.9 | 8.7 (≈ 30.5 µM) | > 30 | 4.2 (≈ 14.7 µM) | > 30 | 18.3 | 12.6 | -2.6 | -4.3 | 0 | 0 | 8.4 | 7.2 | -5.4 | > 100 | GI90 [19]: > 100 µg/mL; GI50 at 72 h [20]: > 100 µg/mL; GI90 (A549): > 100 µg/mL; GI50 at 72 h [21]: > 100 µg/mL; GI90 (MCF7): > 100 µg/mL; IC50 (Escherichia coli): > 30 µg/mL; MIC (Escherichia coli): > 30 µg/mL; IC50 (Pseudomonas): > 30 µg/mL; MIC (Pseudomonas): > 30 µg/mL; IC50 (Staphylococcus aureus): > 30 µg/mL; MIC (Staphylococcus aureus): > 30 µg/mL; IC50 (Bacillus subtilis): > 30 µg/mL; MIC (Bacillus subtilis): > 30 µg/mL
2 | O=C1CSC(c2ccc(Cl)cc2)N1c1ccccc1 (configuration not stated) | -0.5 | 15.9 | 82.1 | 76.8 | 34.3 | 45.6 | > 30 | > 30 | 5.6 (≈ 19.3 µM) | > 30 | 40.1 | 20.6 | -1.4 | -20.4 | 0 | -10.3 | 3.9 | 0 | -7.5 | > 100 | GI90 [19]: > 100 µg/mL; GI50 at 72 h [20]: > 100 µg/mL; GI90 (A549): > 100 µg/mL; GI50 at 72 h [21]: > 100 µg/mL; GI90 (MCF7): > 100 µg/mL; IC50 (Escherichia coli): > 30 µg/mL; MIC (Escherichia coli): > 30 µg/mL; IC50 (Pseudomonas): > 30 µg/mL; MIC (Pseudomonas): > 30 µg/mL; IC50 (Staphylococcus aureus): > 30 µg/mL; MIC (Staphylococcus aureus): > 30 µg/mL; IC50 (Bacillus subtilis): > 30 µg/mL; MIC (Bacillus subtilis): > 30 µg/mL
3 | COc1ccc(N2C(=O)CSC2c2ccccc2)cc1 (configuration not stated) | -0.1 | 30.2 | 91.4 | 86 | 65.4 | 71.9 | > 30 | > 30 | 2.2 (≈ 7.71 µM) | 24 (≈ 84.1 µM) | 15.4 | 8.9 | -10 | 4.4 | 0 | -0.1 | 10.2 | 7.2 | -6.1 | > 100 | GI90 [19]: > 100 µg/mL; GI50 at 72 h [20]: > 100 µg/mL; GI90 (A549): > 100 µg/mL; GI50 at 72 h [21]: > 100 µg/mL; GI90 (MCF7): > 100 µg/mL; IC50 (Escherichia coli): > 30 µg/mL; MIC (Escherichia coli): > 30 µg/mL; IC50 (Pseudomonas): > 30 µg/mL; MIC (Pseudomonas): > 30 µg/mL; IC50 (Staphylococcus aureus): > 30 µg/mL; MIC (Staphylococcus aureus): > 30 µg/mL; IC50 (Bacillus subtilis): > 30 µg/mL; MIC (Bacillus subtilis): > 30 µg/mL
4 | O=C1CSC(c2ccccc2)N1c1ccc(Cl)cc1 (configuration not stated) | 1.3 | -11.3 | 94.3 | 24.2 | -17 | 11.6 | > 30 | > 30 | 17.3 (≈ 59.7 µM) | 28.7 (≈ 99 µM) | 38 | 19.5 | 11.2 | 13.4 | 0 | -12.3 | 32.8 | 30 | 19 | > 100 | GI90 [19]: > 100 µg/mL; GI50 at 72 h [20]: > 100 µg/mL; GI90 (A549): > 100 µg/mL; GI50 at 72 h [21]: > 100 µg/mL; GI90 (MCF7): > 100 µg/mL; IC50 (Escherichia coli): > 30 µg/mL; MIC (Escherichia coli): > 30 µg/mL; IC50 (Pseudomonas): > 30 µg/mL; MIC (Pseudomonas): > 30 µg/mL; IC50 (Staphylococcus aureus): > 30 µg/mL; MIC (Staphylococcus aureus): > 30 µg/mL; IC50 (Bacillus subtilis): > 30 µg/mL; MIC (Bacillus subtilis): > 30 µg/mL

Source: ChEMBL document CHEMBL3779788, “Facile synthesis of 1,3-thiazolidin-4-ones as antitubercular agents” (Bioorg Med Chem Lett, 2016)
